Test results published in patent US12606594B2, “Heterotandem bicyclic peptide complexes” (BicycleTx Limited, priority 2019, dated 2026).
Values joined by “and” are separate entries in the source; they are usually repeats but may differ in a detail not shown here. Equal entries are not always repeated. Where two headings read alike, the source gives them in different places. Starred links: 1 amine or outer side, 2 acyl side, 3 side chain; linkers in the order of their positions; H or OH if unused. Positions of bridges follow the written chain, without caps; N, C: chain ends. Non-standard residues stand in square brackets, D forms with d. Chains are numbered I, II in the order given. X1 = O=C(CCOCCOCCOCCN(CCOCCOCCOCCn1cc(CCC(=O)[*:2])nn1)CCOCCOCCOCCn1cc(CCC(=O)[*:3])nn1)[*:1]; TATA = O=C(CC[*:1])N1CN(C(=O)CC[*:2])CN(C(=O)CC[*:3])C1; d1Nal = N[C@H](Cc1cccc2ccccc12)C(=O)O; Hyp = O=C(O)[C@@H]1C[C@@H](O)CN1; hArg = N=C(N)NCCCC[C@H](N)C(=O)O; tBuAla = CC(C)(C)C[C@H](N)C(=O)O; Nle = CCCC[C@H](N)C(=O)O

Columns and labels:
[1] = CD137 reporter assay co-culture with tumor cells (Promega CD137 luciferase reporter, Jurkat cells); type: cell-based; details: read-out: Emax (Fold Induction over background)
Experimental: (§1) Culture medium, referred to as R1 media, is prepared by adding 1% FBS to RPMI-1640 (component of Promega kit CS196005). Serial dilutions of test articles in R1 are prepared in a sterile 96 well-plate. Add 25 μL per well of test articles or R1 (as a background control) to designated wells in a white cell culture plate. Tumor cells* are harvested and resuspended at a concentration of 400,000 cells/mL in R1 media. Twenty five (25) μL/well of tumor cells are added to the white cell culture plate. Jurkat cells (Promega kit CS196005, 0.5 mL) are thawed in the water bath and then added to 5 ml pre-warmed R1 media. Twenty five (25) […] of Jurkat cells are then added to the white cell culture plate. Incubate the cells and test articles for 6 h at 37° C., 5% CO2. At the end of 6 h, add 75 µL/well Bio-Glo™ reagent (Promega) and incubate for 10 min before reading luminescence in a plate reader (Clariostar, BMG). The fold change relative to cells alone (Jurkat cells+Cell line used in co-culture) is calculated and plotted in GraphPad Prism as log(agonist) vs response to determine EC50 (nM) and Fold Induction over background (Max).
(§2) The tumor cell types used in co-culture for EphA2 are A549, PC-3 and HT29.

CD137 = assay: as above; type: cell-based
Experimental: as §1, §2

[2] = Pharmacokinetics of BCY13272 in SD rats; type: in vivo; details: 3.6 mg/kg IV infusion (15 min)
Experimental: Male SD Rats were dosed with heterotandem complex BCY13272 formulated in 25 mM Histidine HCl, 10% sucrose pH 7 by IV bolus or IV infusion (15 minutes). Serial bleeding (about 80 μL blood/time point) was performed via submandibular or saphenous vein at each time point. All blood samples were immediately transferred into prechilled microcentrifuge tubes containing 2 μL K2-EDTA (0.5M) as anti-coagulant and placed on wet ice. Blood samples were immediately processed for plasma by centrifugation at approximately 4° C., 3000 g. The precipitant including internal standard was immediately added into the plasma, mixed well and centrifuged at 12,000 rpm, 4° C. for 10 minutes. The supernatant was transferred into pre-labeled polypropylene microcentrifuge tubes, and then quick-frozen over dry ice. The samples were stored at […] or below as needed until analysis. 7.5 μL of the supernatant samples were directly injected for LC-MS/MS analysis using an Orbitrap Q Exactive in positive ion mode to determine the concentrations of analyte. Plasma concentration versus time data were analyzed by non-compartmental approaches using the Phoenix WinNonlin 6.3 software program. CO, Cl, Vdss, T½, AUC(0-last), AUC(0-inf), MRT(0-last), MRT(0-inf) and graphs of plasma concentration versus time profile were reported.

Substance: I: A[hArg]DC[Hyp]LVNPLCLEP[d1Nal]WTC-NH2 / II: Ac-C[tBuAla]PE[dK]PYCFADPY[Nle]CA-NH2 / III: Ac-C[tBuAla]PE[dK]PYCFADPY[Nle]CA-NH2 (linker I:4-I:11-I:18, II:1-II:8-II:15, III:1-III:8-III:15 via TATA (inferred); linker I:N-II:5-III:5 via X1 (inferred)) [BCY13272]
- fold induction ([1]; EphA2 cell line A549): 25.7
- fold induction ([1]; EphA2 cell line HT-29): 36.5
- fold induction ([1]; EphA2 cell line PC-3): 44.2
- Emax (Fold Induction over background) (CD137; EphA2 cell line A549): 23.6 and 30.2
- Emax (Fold Induction over background) (CD137; EphA2 cell line HT-29): 26 and 36.4
- Emax (Fold Induction over background) (CD137; EphA2 cell line PC-3): 53 and 44.5
- T½ (terminal half-life) ([2]; 3.6 mg/kg): 2.9 h
- clearance ([2]; rat, in vivo, read-out: Clp (clearance)): 7.4 mL/min/kg
